From patent US20260076909A1, “SOLID COMPOSITION AND METHOD FOR PRODUCING THE SAME” (DKS Co. Ltd., priority 2022, published 2026) come the findings set out here.

A short description of data set [1]: Dissolution test 1: dissolution amount. It is filed as physicochemical. To be noted: cannabidiol; 8 mg in capsule, 900 mL ion-exchanged water, 37° C., 0.45 μm filtrate. How it is done: As the dissolution testing apparatus, an “NTR-6600AST” manufactured by Toyama Sangyo Co., Ltd. was used; the vessel was charged with 900 mL of ion-exchanged water; for the purpose of degassing, the water was stirred overnight at a water temperature of 37° C.±0.2° C. A gelatin capsule (“HF capsule” manufactured by Matsuya Corporation) filled with the solid composition containing 8 mg of the cannabidiol was placed into a sinker, and immersed into the vessel. After a lapse of a predetermined time, sampling was performed in the vessel and the sample was filtered through a 0.45 μm membrane filter. […] The filtrate was diluted two-fold with ethanol and filtered through a 0.20 μm membrane filter; HPLC was performed to quantify the cannabidiol. For each solid composition, two samples were tested and the resultant values were averaged; the average was rounded to two decimal places to determine the dissolution amount.
The 0.45 μm membrane filter employed was “25HP045AN” (filter material: PTFE, pore size: 0.45 μm) manufactured by ADVANTEC. The 0.20 μm membrane filter employed was “13HP020AN” (filter material: PTFE, pore size: 0.20 μm) manufactured by ADVANTEC.
The HPLC conditions were column: octadecylsilyl column, solvent: mixed solution of acetonitrile/10 mM aqueous ammonium acetate solution, and wavelength: 210 nm. […]

Data set [2] is described as follows: Oral absorption evaluation: animal experiment. It is filed as in vivo. The note with it: male SD rats, 30 mg/kg in terms of cannabidiol, 0.5-24 hours, highest AUC of three rats. Here is the method: Of the three rats, data of the highest AUC was employed.
In the LC-MS/MS measurement, as a pre-treatment, 20 μL of the plasma sample and 80 μL of methanol were placed into an Eppendorf tube and suspended for deproteinization. After the proteins were precipitated in a centrifuge, the supernatant was subjected to centrifugal filtration using a filter (manufactured by Millipore, Ultrafree-MC, Hydrophilic PTFE membrane, 0.2 μm). This solution and ultrapure water were mixed together in 1:1 (mass ratio), and used as the measurement sample. The measurement conditions of LC-MS/MS were column: octadecylsilyl column, ion source: ESI+, mobile phase: solution mixture of methanol/10 mM aqueous ammonium formate solution.
The solid composition of Example 5 was evaluated for oral absorption by an animal experiment similar to that for the solid composition of Example 3. Specifically, while the powder composed only of cannabidiol in Comparative Example 1 was used as the control, the animal experiment was performed in accordance with the above-described oral absorption evaluation method.

The nature of data set [3]: Dissolution test 2. To be noted: composition with 0.4 mg cannabidiol in 45 g ion-exchanged water, 0.45 μm filtrate. It is filed as physicochemical. Here is the method: In a 50 mL screw vial, such a solid composition including 0.4 mg of cannabidiol was dissolved in 45 g of ion-exchanged water. The resultant solution was filtered through a 0.45 μm membrane filter; the filtrate was diluted two-fold with ethanol and further filtered through a 0.20 μm membrane filter; HPLC was performed to quantify the cannabidiol. The value was rounded to two decimal places to determine the dissolution amount. The 0.45 μm membrane filter, the 0.20 μm membrane filter, and the HPLC conditions were as described in the dissolution test 1.

The nature of data set [4]: Amorphization evaluation: XRD. It counts as physicochemical. Here is the method: A “RINT UltimaIII horizontal goniometer (D/teX-25)” manufactured by Rigaku Corporation was used to obtain the XRD chart of such a solid composition. The XRD measurement conditions were the focusing method, X-ray: Cu/40 kV/40 mA, scanning range: 3.0° to 50.0°, and scanning axis: 2θ/θ.

Consider `C=C(C)[C@@H]1CCC(C)=C[C@H]1c1c(O)cc(CCCCC)cc1O` [Comparative Example 1, cannabidiol], for which, in data set [1], the “Dissolution amount after lapse of 120 minutes” value was found to be 0.01 µg/mL and the “Dissolution amount after lapse of 240 minutes” value came to 0.01 µg/mL. The “AUC (area under the blood concentration time curve) of the cannabidiol” value in data set [2] (30 mg/kg) was determined as 665 ng·h/mL. Besides, in data set [2] (rat, plasma, read-out: AUC (area under the blood concentration time curve) of the cannabidiol), the AUC worked out at 812 ng·h/mL. In addition, the “Dissolution test 2 dissolution amount” value in data set [3] came to 0.03 µg/mL. Moreover, in data set [4], the “Form of the cannabinoid from the XRD chart (in words)” value was “crystalline state”.
